Data on 25 compounds can be found in the supplement of paper PMC6206229.

Assay [1] relates to Staphylococcus aureus ATCC 29213 (MSSA). Kind of assay: minimum inhibitory concentration; extreme values may be limits of the assay. The gist of the method:
(§1)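 Methicillin-susceptible and methicillin-resistant Staphylococcus aureus were tested by broth microdilution in 96-well plates, following CLSI guidance with a resazurin redox read-out. Compounds were tested from 0 to 100 µM and incubated with bacteria for 24 h at 37°C, then 30 µl of 0.015% resazurin was added for 2–4 h, with positive controls on each plate. The minimum inhibitory concentration was the lowest concentration that stayed blue rather than turning pink. Runs were done at least twice in triplicate.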

Assay [2] deals with Staphylococcus aureus ATCC 700699 (MRSA). The assay is described as above. The gist of the method:
as §1

Molecules are shown by their SMILES.

`Cc1nnc(NC(=O)c2cn(-c3ccccc3)nc2-c2ccccc2C)o1`: the minimum inhibitory concentration in assay [1] and in assay [2] was above 50 µM each time.

Regarding `Cc1ccccc1C(=O)N1N=C(Nc2ccccc2)SC1(C)C`, the minimum inhibitory concentration in assay [1] and in assay [2] was above 50 µM in each case.

Take `O=C(NC1CC1)c1ccc(CSCc2ccccc2Cl)o1`: the minimum inhibitory concentration in assay [1] and in assay [2] was above 50 µM in each case.

Consider `O=C(CCC1CCCCC1)Nc1cccc(-c2nnc(-c3ccco3)o2)c1`, for which the minimum inhibitory concentration in assay [1] and in assay [2] was above 50 µM throughout.

Take `CC(=O)N1CCc2cc3nc(C)cc(C)c3cc21`: the minimum inhibitory concentration in assay [1] and in assay [2] was above 50 µM each time.

As for `O=C(NCc1cc(Cl)cc(Cl)c1)c1c(C(F)(F)F)nc2ccccn12`, the minimum inhibitory concentration in assay [1] and in assay [2] was above 50 µM each time.

`Cc1cccc(Cn2ccc(NC(=O)c3ccc4c(c3)OCO4)n2)c1`: the minimum inhibitory concentration in assay [1] and in assay [2] was above 50 µM in each case.

`O=C(NC1CCCCC1)N1CCN(Cc2ccc3c(c2)OCO3)CC1`: the minimum inhibitory concentration in assay [1] and in assay [2] was above 50 µM in each case.

Take `COc1ccc(-c2nnc3ccc(-c4cccc(C(C)C)c4)cn23)cc1OC`: the minimum inhibitory concentration in assay [1] and in assay [2] was above 50 µM in each case.

On to `O=C(NCCc1ccccc1)c1cc(-c2cccnc2)cnc1NCC1CC1`, for which the minimum inhibitory concentration in assay [1] and in assay [2] was above 50 µM in each case.

In the case of `CN1CCN(CCCOc2ncc(Nc3ncc(-c4ccc(C(F)(F)F)c(F)c4)nc3C(N)=O)cn2)CC1`, the minimum inhibitory concentration in assay [1] and in assay [2] was above 50 µM in each case.

Take `CCOC(=O)NC(=O)c1ccsc1NC(=O)c1nc2ccccc2s1`: the minimum inhibitory concentration in assay [1] and in assay [2] was above 50 µM each time.

As to `CCN(CC)C(=O)N1CCN(C)CC1`, the minimum inhibitory concentration in assay [1] and in assay [2] was above 50 µM each time.

As to `OCc1ccc(-c2cncc(Nc3cccc(Cl)c3)c2)cc1`, the minimum inhibitory concentration in assay [1] and in assay [2] was above 50 µM in each case.

For the compound `c1cncc(NCc2ccc(-c3cc4ccncc4cc3OC3CCNCC3)s2)c1`, the minimum inhibitory concentration in assay [1] and in assay [2] was above 50 µM in each case.

On to `OCCc1ccc(Nc2nccc(-c3nnc4ccccn34)n2)cc1`, for which the minimum inhibitory concentration in assay [1] and in assay [2] was above 50 µM in each case.

Consider `COC(=O)c1ccc(F)cc1NS(=O)(=O)c1cccc(-c2cnn(Cc3ccccc3)c2)c1`, for which the minimum inhibitory concentration in assay [1] and in assay [2] was above 50 µM each time.

As to `CCc1cc(=O)n(C)c(SC(C)C(=O)Nc2ccc(F)cc2)n1` (stereo not given), the minimum inhibitory concentration in assay [1] and in assay [2] was above 50 µM in each case.

As to `NCC(c1cccs1)S(=O)(=O)c1ccccc1` (stereo not given), the minimum inhibitory concentration in assay [1] and in assay [2] was above 50 µM in each case.

In the case of `CC(C)(C)c1ccc(N[C@@H]2CCCC[C@H]2NC(=O)c2ccco2)cc1`, the minimum inhibitory concentration in assay [1] and in assay [2] was above 50 µM each time.

`Cc1ccc2nc(C)c(-c3ccn(Cc4ccccc4)n3)n2c1`: the minimum inhibitory concentration in assay [1] and in assay [2] was above 50 µM in each case.

`COc1ccc(-c2nc(-c3cccc(NC(=O)Cc4ccc(F)cc4)c3)no2)cc1OC`: the minimum inhibitory concentration in assay [1] and in assay [2] was above 50 µM throughout.

In the case of `CC(C)C(C(=O)Nc1ccc(S(=O)(=O)N(C)C)cc1)c1ccc(Cl)cc1` (stereo not given), the minimum inhibitory concentration in assay [1] and in assay [2] was above 50 µM throughout.

As to `Cc1cc2nc(NC(=O)C(C)(C)C)nc(Cl)c2n1Cc1ccc(Cl)cc1`, the minimum inhibitory concentration in assay [1] and in assay [2] was above 50 µM throughout.

`CCCCS(=O)(=O)Nc1ccc2cnn(C)c2c1`: the minimum inhibitory concentration in assay [1] and in assay [2] was above 50 µM in each case.
